# Assays:
# [1] = target: PSMA protein (Homo sapiens (Human), UniProt Q04609); assay: Affinity of DB compounds to PSMA protein using Biacore (Effect Example 3); details: Biacore 8K, 15° C., 1:1 binding model; pKD=−Log KD
# Procedure: The affinity of DB compounds to PSMA protein was tested using the Biacore 8K (Cytiva) instrument to detect ligand binding to PSMA protein (Sino Biological). PSMA protein was captured on an SA chip. Before fixing the ligand (flow paths 1 and 2, flow rate of 10 μL/min), PSMA protein (10 μg/mL, flow rate of 5 μL/min, injection time of 600 s) was fixed on flow path 2 using a flow buffer. The sensor surface was adjusted by continuously injecting 1 M NaCl three times in 50 mM NaOH. After each ligand injection, additional cleaning was performed using isopropanol in 1 M NaCl and 50 mM NaOH (flow paths 1 and 2, flow rate of 10 μL/min, injection time of 60 s).
# All compounds were dissolved in 100% DMSO and diluted to 10 mM, then further diluted to the appropriate highest concentration in the analysis buffer (PBS, PH 7.4, 1 mM TCEP ([…]), 0.05% P20, 2% DMSO). The analysis was conducted under the following conditions: 15° C. analysis temperature; analysis steps=all set to LMW kinetics; cycle type=single cycle (90 s contact time, 1800 s dissociation time, 30 μL/min flow rate, flow paths 1 and 2); detection in flow=path 2-1. Data evaluation was performed using Biacore Insight Evaluation Software, fitting the data to a 1:1 binding model.
# Biacore results are shown in Table 5: pKD=−Log KD, wherein KD is the binding affinity of the compound to PSMA protein measured by Biacore. It is expressed by Kd (M)=Kd (1/s)/Ka (1/Ms). A indicates pKD>8; B indicates 7<pKD<8; C indicates 6<pKD<7; D indicates pKD<6.
# [2] = test system: PSMA-positive 22rv1 tumor-bearing mouse; assay: 177Lu labeling and animal biodistribution experiment, gamma counter; type: in vivo; details: 177Lu-labeled compound, 24 h after tail vein injection, n = 2
# Procedure: Distribution in PSMA-positive tumor-bearing mouse tissues: Tumor-bearing animals (purchased from Shanghai Alamo Pharmaceutical Technology Co., Ltd.) were subcutaneously inoculated with 3×10^6 22rv1 cells (in 50% Matrigel, Corning) into the right shoulder region of 6-9 week old (Balb/c Nude) mouse. Once the tumors had grown to an appropriate size, ^177Lu-radiolabeled DB compounds were injected into the mouse via the tail vein (approximately 1.85 MBq-3.7 MBq/mouse, specific activity: 22423.82 Kbq/μg). After administration, the animals were euthanized using carbon dioxide inhalation at 24 hours. The blood and organs (blood, liver, kidney, muscle, tumor) were collected.
# Blood was collected through the abdominal aorta and 100 μL was immediately quantified into designated centrifuge tubes (weighed). After collection, the organs were washed twice with deionized water, dried, placed in pre-weighed tubes, and weighed again to calculate the sample weight. Samples were measured on the day of collection. All blood and tissue samples were measured for radioactivity using a gamma counter. The results are shown in FIGS. 3, 4, 5, 6, 7, and Table 6.
# [3] = test system: human prostate cancer cell line 22RV1 tumor model; assay: Micro-SPECT/CT scanning imaging study in mouse transplanted with 22RV1; type: in vivo; details: for Uptake in Bladder / Uptake in Kidney / Uptake in Liver / Uptake in Muscle / Uptake in Tumor (22Rv1): i.v., Micro-SPECT/CT
# Procedure: Human prostate cancer cell line 22RV1 cells were subcutaneously injected into the axilla of nude mouse to establish a prostate cancer tumor model. Approximately 3.7 MBq (100 μCi/200 μL) of the ^177Lu-labeled compound [^177Lu] DB-01 was administered via intravenous injection. SPECT/CT images were acquired using the U-SPECT+/CT (MI Labs) at 3rd hour, 5th hour, 24th hour, 72nd hour, 120th hour and 168th hour post-injection, and the resulting SPECT/CT images were quantitatively analyzed.
# Table 4 presents the uptake in various organs of mouse at the 3rd hour, 5th hour, 24th hour, 72nd hour, 120th hour, and 168th hour post-injection of [^177Lu] DB-01. The results are expressed as the quantitative percentage of the injected dose (% ID)/g, based on Micro-SPECT/CT quantitative analysis.
# PSMA protein, sequence (Q04609 whole entry): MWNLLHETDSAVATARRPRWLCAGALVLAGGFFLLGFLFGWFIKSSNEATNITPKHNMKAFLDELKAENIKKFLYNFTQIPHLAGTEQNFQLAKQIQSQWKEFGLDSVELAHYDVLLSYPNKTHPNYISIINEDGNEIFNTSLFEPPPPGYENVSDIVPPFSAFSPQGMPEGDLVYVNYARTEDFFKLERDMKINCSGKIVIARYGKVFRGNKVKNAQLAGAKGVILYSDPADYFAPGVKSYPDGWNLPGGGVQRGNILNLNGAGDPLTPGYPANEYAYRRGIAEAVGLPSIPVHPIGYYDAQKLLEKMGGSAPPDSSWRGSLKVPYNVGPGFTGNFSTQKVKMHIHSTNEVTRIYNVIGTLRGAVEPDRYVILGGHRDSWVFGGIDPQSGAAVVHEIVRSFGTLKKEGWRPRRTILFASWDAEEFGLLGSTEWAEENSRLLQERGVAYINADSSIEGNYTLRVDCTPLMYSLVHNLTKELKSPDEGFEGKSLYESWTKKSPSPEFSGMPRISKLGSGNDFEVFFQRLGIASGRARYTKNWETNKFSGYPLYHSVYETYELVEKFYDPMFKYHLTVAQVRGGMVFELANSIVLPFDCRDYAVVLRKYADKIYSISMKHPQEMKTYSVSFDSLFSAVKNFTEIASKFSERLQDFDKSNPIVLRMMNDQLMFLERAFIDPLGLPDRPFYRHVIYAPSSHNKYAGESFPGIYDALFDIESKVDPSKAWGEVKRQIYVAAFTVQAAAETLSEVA
smiles,measurement,setting,value
O=C(O)CC[C@H](NC(=O)N[C@@H](CCCCNC(=O)[C@H](Cc1ccc2ccccc2c1)NC(=O)c1ccc2c(c1)CCN(C(=O)CCC(=O)NCC(=O)N1CN(C(=O)CNC(=O)CCC(=O)N3CCc4cc(C(=O)N[C@@H](Cc5ccc6ccccc6c5)C(=O)NCCCC[C@H](NC(=O)N[C@@H](CCC(=O)O)C(=O)O)C(=O)O)ccc4C3)CN(C(=O)CNC(=O)CN3CCN(CC(=O)O)CCN(CC(=O)O)CCN(CC(=O)O)CC3)C1)C2)C(=O)O)C(=O)O [DB-14],Kd,[1],< 10 nM
same,Blood uptake,[2],0.06 % ID/g
same,Kidney uptake,[2],31.72 % ID/g
same,Liver uptake,[2],0.37 % ID/g
same,Muscle uptake,[2],0.1 % ID/g
same,Tumor uptake,[2],43.175 % ID/g
O=C(O)CC[C@H](NC(=O)NC(CCCCNC(=O)[C@H](Cc1ccc2ccccc2c1)NC(=O)[C@H]1CC[C@H](NC(=O)c2cc(NC(=O)CNC(=O)CN3CCN(CC(=O)O)CCN(CC(=O)O)CCN(CC(=O)O)CC3)cc(C(=O)N[C@H]3CC[C@H](C(=O)N[C@@H](Cc4ccc5ccccc5c4)C(=O)NCCCC[C@H](NC(=O)N[C@@H](CCC(=O)O)C(=O)O)C(=O)O)CC3)c2)CC1)C(=O)O)C(=O)O (stereo partly shown) [DB-17],Kd,[1],< 10 nM
O=C(O)CC[C@H](NC(=O)N[C@@H](CCCCNC(=O)[C@H](Cc1ccc2ccccc2c1)NC(=O)[C@H]1CC[C@H](CNC(=O)CNC(=O)c2cc(NC(=O)CN3CCN(CC(=O)O)CCN(CC(=O)O)CCN(CC(=O)O)CC3)cc(C(=O)NCC(=O)NC[C@H]3CC[C@H](C(=O)N[C@@H](Cc4ccc5ccccc5c4)C(=O)NCCCC[C@H](NC(=O)N[C@@H](CCC(=O)O)C(=O)O)C(=O)O)CC3)c2)CC1)C(=O)O)C(=O)O [DB-02],Kd,[1],< 10 nM
O=C(O)CC[C@H](NC(=O)NC(CCCCNC(=O)[C@H](Cc1ccc2ccccc2c1)NC(=O)c1ccc(C2CCN(C(=O)CCC(=O)NCCCC[C@H](NC(=O)CCC(=O)N3CCC(c4ccc(C(=O)N[C@@H](Cc5ccc6ccccc6c5)C(=O)NCCCC[C@H](NC(=O)N[C@@H](CCC(=O)O)C(=O)O)C(=O)O)cc4)CC3)C(=O)NCCNC(=O)CN3CCN(CC(=O)O)CCN(CC(=O)O)CCN(CC(=O)O)CC3)CC2)cc1)C(=O)O)C(=O)O (stereo partly shown) [DB-20],Kd,[1],< 10 nM
same,Blood uptake,[2],0.160 % ID/g
same,Kidney uptake,[2],74.455 % ID/g
same,Liver uptake,[2],1.020 % ID/g
same,Muscle uptake,[2],0.175 % ID/g
same,Tumor uptake,[2],41.73 % ID/g
O=C(O)CC[C@H](NC(=O)NC(CCCCNC(=O)[C@H](Cc1ccc2ccccc2c1)NC(=O)[C@H]1CC[C@H](NC(=O)COCCOCCNC(=O)c2cc(NC(=O)CCCCCCCNC(=O)CN3CCN(CC(=O)O)CCN(CC(=O)O)CCN(CC(=O)O)CC3)cc(C(=O)NCCOCCOCC(=O)N[C@H]3CC[C@H](C(=O)N[C@@H](Cc4ccc5ccccc5c4)C(=O)NCCCC[C@H](NC(=O)N[C@@H](CCC(=O)O)C(=O)O)C(=O)O)CC3)c2)CC1)C(=O)O)C(=O)O (stereo partly shown) [DB-15],Kd,[1],< 10 nM
same,Blood uptake,[2],0.035 % ID/g
same,Kidney uptake,[2],8.76 % ID/g
same,Liver uptake,[2],0.095 % ID/g
same,Muscle uptake,[2],0.04 % ID/g
same,Tumor uptake,[2],19.46 % ID/g
O=C(O)CC[C@H](NC(=O)NC(CCCCNC(=O)[C@H](Cc1ccc2ccccc2c1)NC(=O)c1ccc(C2CCN(C(=O)CNC(=O)c3cc(NC(=O)COCCOCCNC(=O)CN4CCN(CC(=O)O)CCN(CC(=O)O)CCN(CC(=O)O)CC4)cc(C(=O)NCC(=O)N4CCC(c5ccc(C(=O)N[C@@H](Cc6ccc7ccccc7c6)C(=O)NCCCC[C@H](NC(=O)N[C@@H](CCC(=O)O)C(=O)O)C(=O)O)cc5)CC4)c3)CC2)cc1)C(=O)O)C(=O)O (stereo partly shown) [DB-21],Kd,[1],< 10 nM
same,Blood uptake,[2],1.54 % ID/g
same,Kidney uptake,[2],150.54 % ID/g
same,Liver uptake,[2],3.645 % ID/g
same,Muscle uptake,[2],0.465 % ID/g
same,Tumor uptake,[2],77.54 % ID/g
O=C(O)CC[C@H](NC(=O)N[C@@H](CCCCNC(=O)[C@H](Cc1ccc2ccccc2c1)NC(=O)c1ccc(C2CCN(C(=O)CCC(=O)NCC(=O)N3CN(C(=O)CNC(=O)CCC(=O)N4CCC(c5ccc(C(=O)N[C@@H](Cc6ccc7ccccc7c6)C(=O)NCCCC[C@H](NC(=O)N[C@@H](CCC(=O)O)C(=O)O)C(=O)O)cc5)CC4)CN(C(=O)CNC(=O)CN4CCN(CC(=O)O)CCN(CC(=O)O)CCN(CC(=O)O)CC4)C3)CC2)cc1)C(=O)O)C(=O)O [DB-12],Kd,[1],< 10 nM
same,Blood uptake,[2],0.145 % ID/g
same,Kidney uptake,[2],88.175 % ID/g
same,Liver uptake,[2],1.415 % ID/g
same,Muscle uptake,[2],0.135 % ID/g
O=C(O)CC[C@H](NC(=O)N[C@@H](CCCCNC(=O)[C@H](Cc1ccc2ccccc2c1)NC(=O)C1CCC(CNC(=O)c2cc(NC(=O)C[N+]34CC[N+]56CC[N+]78CC[N+]9(CC3)CC(=O)[O][Lu-4]4597([O]C(=O)C6)[O]C(=O)C8)cc(C(=O)NC[C@H]3CC[C@H](C(=O)N[C@@H](Cc4ccc5ccccc5c4)C(=O)NCCCC[C@H](NC(=O)N[C@@H](CCC(=O)O)C(=O)O)C(=O)O)CC3)c2)CC1)C(=O)O)C(=O)O (stereo partly shown) [[^177Lu] DB-01],Uptake in Bladder,[3]; 3 hr post-injection,65.50 ± 36.65 % ID/g
same,Uptake in Kidney,[3]; 3 hr post-injection,43.00 ± 7.38 % ID/g
same,Uptake in Liver,[3]; 3 hr post-injection,2.75 ± 0.90 % ID/g
same,Uptake in Muscle,[3]; 3 hr post-injection,1.97 ± 0.71 % ID/g
same,Uptake in Tumor (22Rv1),[3]; 3 hr post-injection,21.25 ± 4.38 % ID/g
same,Uptake in Bladder,[3]; 5 hr post-injection,140.36 ± 10.51 % ID/g
same,Uptake in Kidney,[3]; 5 hr post-injection,19.29 ± 2.77 % ID/g
same,Uptake in Liver,[3]; 5 hr post-injection,1.56 ± 0.15 % ID/g
same,Uptake in Muscle,[3]; 5 hr post-injection,1.10 ± 0.56 % ID/g
same,Uptake in Tumor (22Rv1),[3]; 5 hr post-injection,21.28 ± 0.42 % ID/g
same,Uptake in Bladder,[3]; 24 hr post-injection,0.61 ± 0.00 % ID/g
same,Uptake in Kidney,[3]; 24 hr post-injection,1.32 ± 0.63 % ID/g
same,Uptake in Liver,[3]; 24 hr post-injection,0.91 ± 0.45 % ID/g
same,Uptake in Muscle,[3]; 24 hr post-injection,0.51 ± 0.17 % ID/g
same,Uptake in Tumor (22Rv1),[3]; 24 hr post-injection,15.51 ± 2.65 % ID/g
same,Uptake in Bladder,[3]; 72 hr post-injection,1.03 ± 0.62 % ID/g
same,Uptake in Kidney,[3]; 72 hr post-injection,1.38 ± 0.29 % ID/g
same,Uptake in Liver,[3]; 72 hr post-injection,0.90 ± 0.42 % ID/g
same,Uptake in Muscle,[3]; 72 hr post-injection,0.81 ± 0.23 % ID/g
same,Uptake in Tumor (22Rv1),[3]; 72 hr post-injection,12.41 ± 0.95 % ID/g
same,Uptake in Bladder,[3]; 120 hr post-injection,0.92 ± 0.06 % ID/g
same,Uptake in Kidney,[3]; 120 hr post-injection,0.77 ± 0.62 % ID/g
same,Uptake in Liver,[3]; 120 hr post-injection,0.99 ± 0.22 % ID/g
same,Uptake in Muscle,[3]; 120 hr post-injection,0.43 ± 0.17 % ID/g
same,Uptake in Tumor (22Rv1),[3]; 120 hr post-injection,8.90 ± 0.48 % ID/g
same,Uptake in Bladder,[3]; 168 hr post-injection,1.01 ± 0.38 % ID/g
same,Uptake in Kidney,[3]; 168 hr post-injection,1.53 ± 0.46 % ID/g
same,Uptake in Liver,[3]; 168 hr post-injection,1.04 ± 0.26 % ID/g
same,Uptake in Muscle,[3]; 168 hr post-injection,0.65 ± 0.34 % ID/g
same,Uptake in Tumor (22Rv1),[3]; 168 hr post-injection,7.85±1.16 % ID/g
same,uptake in tumor,"[3]; at 180 minutes, according to calculations",13.55±3.85 % ID/g
same,excretion,[3]; early stages post-injection,rapidly excreted through the kidneys and bladder
same,time at which concentration of the radiopharmaceutical in the tumor reaches its peak,[3]; post-administration,5 h
O=C(O)CC[C@H](NC(=O)NC(CCCCNC(=O)[C@H](Cc1ccc2ccccc2c1)NC(=O)[C@H]1CC[C@H](NC(=O)CCC(=O)NCCCC[C@H](NC(=O)CCC(=O)N[C@H]2CC[C@H](C(=O)N[C@@H](Cc3ccc4ccccc4c3)C(=O)NCCCC[C@H](NC(=O)N[C@@H](CCC(=O)O)C(=O)O)C(=O)O)CC2)C(=O)NCCNC(=O)CN2CCN(CC(=O)O)CCN(CC(=O)O)CCN(CC(=O)O)CC2)CC1)C(=O)O)C(=O)O (stereo partly shown) [DB-16],Kd,[1],< 10 nM
same,Blood uptake,[2],0.03 % ID/g
same,Kidney uptake,[2],5.135 % ID/g
same,Liver uptake,[2],0.185 % ID/g
same,Muscle uptake,[2],0.045 % ID/g
same,Tumor uptake,[2],12.015 % ID/g

# Source: patent publication US20250108139A1, “PEPTIDE UREA DERIVATIVE, PHARMACEUTICAL COMPOSITION CONTAINING PEPTIDE UREA DERIVATIVE, AND APPLICATION OF PEPTIDE UREA DERIVATIVE” (BIVISION PHARMACEUTICALS, INC, priority 2022, published 2025)
